The values below come from ChEMBL document CHEMBL3763049, “Discovery of aminoquinazoline derivatives as human A(2A) adenosine receptor antagonists” (Bioorg Med Chem Lett, 2016).

Converted amounts (≈) assume the structure as drawn.

The test system of series [1] is Rattus norvegicus. As to the kind of experiment: Anti-cataleptic activity in Sprague-Dawley rat assessed as inhibition of haloperidol-induced catalepsy at 10 mg/kg, po administered for 1 hr. The series is classed as functional.
The target in series [2] is Adenosine receptor A2a (Rattus norvegicus, UniProt P30543). Put plainly: Binding affinity to rat A2A adenosine receptor. The settings on record: read-out: Ki.
Sequence of Adenosine receptor A2a (Rattus norvegicus, UniProt P30543) (P30543 whole entry): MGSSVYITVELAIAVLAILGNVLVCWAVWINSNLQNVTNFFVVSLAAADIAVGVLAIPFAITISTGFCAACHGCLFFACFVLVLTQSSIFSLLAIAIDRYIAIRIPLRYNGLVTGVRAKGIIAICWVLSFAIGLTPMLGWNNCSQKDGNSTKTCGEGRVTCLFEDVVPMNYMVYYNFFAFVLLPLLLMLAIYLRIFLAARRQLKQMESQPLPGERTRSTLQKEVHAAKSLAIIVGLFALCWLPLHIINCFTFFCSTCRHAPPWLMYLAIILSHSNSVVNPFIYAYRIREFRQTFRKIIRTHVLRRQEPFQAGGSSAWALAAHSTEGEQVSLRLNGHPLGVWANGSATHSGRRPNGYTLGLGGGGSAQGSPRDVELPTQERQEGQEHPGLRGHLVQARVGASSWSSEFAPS
Series [3] in a line: AUC in haloperidol-induced Sprague-Dawley rat cataleptic model at 10 mg/kg, po administered for 1 hr. Conditions: in vivo; call rule not given here. It counts as ADME, organism-based.
Series [4] addresses T1, Cytochrome P450 3A4 (Homo sapiens, UniProt P08684). Put plainly: Time dependent inhibition of CYP3A4 (unknown origin). It counts as ADME.
Series [5] deals with Rattus norvegicus. As to the kind of experiment: Anti-cataleptic activity in Sprague-Dawley rat assessed as inhibition of haloperidol-induced catalepsy at 1 mg/kg, po administered for 1 hr. It counts as functional.
A further series addresses T2, Adenosine receptor A1 (Homo sapiens, UniProt P30542).
T2 sequence (P30542 whole entry): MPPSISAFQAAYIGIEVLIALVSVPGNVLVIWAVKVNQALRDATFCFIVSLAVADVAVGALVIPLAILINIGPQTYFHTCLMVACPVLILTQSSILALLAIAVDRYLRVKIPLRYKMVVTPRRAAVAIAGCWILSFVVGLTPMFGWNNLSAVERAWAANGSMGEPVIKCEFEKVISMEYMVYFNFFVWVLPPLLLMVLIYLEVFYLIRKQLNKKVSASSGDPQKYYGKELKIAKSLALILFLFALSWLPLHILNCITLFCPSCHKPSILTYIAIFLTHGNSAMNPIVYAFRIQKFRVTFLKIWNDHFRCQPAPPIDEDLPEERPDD
As to the kind of experiment: Displacement of [3H]DPCPX from human adenosine A1 receptor expressed in CHO cell membranes after 60 mins by microplate scintillation counting analysis.

The target in series [6] is Adenosine receptor A2a (Homo sapiens, UniProt P29274). Put plainly: Displacement of [3H]SCH-58261 from human adenosine A2A receptor expressed in HEK cell membranes after 60 mins by microplate scintillation counting analysis. On the set-up: species or system HEK293. In general terms: Loss of bound radioactivity is the signal in a displacement assay; it reports binding, not function.
Sequence of Adenosine receptor A2a (Homo sapiens, UniProt P29274) (P29274 whole entry): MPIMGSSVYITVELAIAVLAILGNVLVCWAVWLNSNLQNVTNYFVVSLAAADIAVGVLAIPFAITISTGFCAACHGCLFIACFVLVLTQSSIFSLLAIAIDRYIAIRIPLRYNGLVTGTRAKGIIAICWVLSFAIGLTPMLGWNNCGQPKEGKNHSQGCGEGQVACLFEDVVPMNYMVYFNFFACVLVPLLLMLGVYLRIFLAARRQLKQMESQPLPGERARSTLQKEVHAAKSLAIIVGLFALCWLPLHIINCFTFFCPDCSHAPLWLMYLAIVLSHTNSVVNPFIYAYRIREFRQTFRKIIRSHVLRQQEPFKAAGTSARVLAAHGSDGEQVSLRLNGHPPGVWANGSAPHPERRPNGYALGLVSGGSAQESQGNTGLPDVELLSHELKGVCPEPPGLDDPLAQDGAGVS

In series [7] the target is T1, Cytochrome P450 3A4. As to the kind of experiment: Time dependent inhibition of CYP3A4 (unknown origin) at 30 uM relative to control. The series is classed as ADME.
A short description of series [8]: Clearance in rat hepatocytes assessed per million cells. It counts as ADME, cell-based, Hepatocyte. Conditions: read-out: CLH.
Series [9] is described as follows: Solubility of compound at pH 7. It counts as physicochemical. Conditions: buffer.
Another series deals with T3, Adenosine receptor A3 (Homo sapiens, UniProt P0DMS8).
T3 sequence (P0DMS8 whole entry): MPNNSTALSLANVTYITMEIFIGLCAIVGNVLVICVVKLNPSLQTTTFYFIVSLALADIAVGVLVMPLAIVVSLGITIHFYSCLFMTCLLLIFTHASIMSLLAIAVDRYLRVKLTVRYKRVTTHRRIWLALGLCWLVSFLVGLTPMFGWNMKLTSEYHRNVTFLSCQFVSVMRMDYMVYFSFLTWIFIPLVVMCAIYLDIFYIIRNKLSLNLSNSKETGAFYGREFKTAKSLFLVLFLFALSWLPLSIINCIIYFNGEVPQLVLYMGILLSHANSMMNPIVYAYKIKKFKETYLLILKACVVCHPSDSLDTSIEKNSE
As to the kind of experiment: Binding affinity to human adenosine A3 receptor.

Series [10] can be described thus: Half life in haloperidol-induced Sprague-Dawley rat cataleptic model at 1 to 30 mg/kg, po administered for 1 to 4 hrs. It counts as ADME, organism-based. Conditions: in vivo.
Series [11] in a line: Plasma concentration in haloperidol-induced Sprague-Dawley rat cataleptic model after 1 hr. The series is classed as ADME.
Series [12] is described as follows: Clearance in human hepatocytes assessed per million cells. The series is classed as ADME, cell-based, Hepatocyte. Conditions: read-out: CLH.
Series [13] can be described thus: Plasma protein binding in rat. The series is classed as ADME, cell-free. The settings on record: read-out: PPB (converted).
For series [14], the system named is Rattus norvegicus. As to the kind of experiment: Anti-cataleptic activity in Sprague-Dawley rat assessed as inhibition of haloperidol-induced catalepsy at 30 mg/kg, po administered for 1 hr. It counts as functional.
Another series addresses T4, Adenosine receptor A2b (Homo sapiens, UniProt P29275).
T4 sequence (P29275 whole entry): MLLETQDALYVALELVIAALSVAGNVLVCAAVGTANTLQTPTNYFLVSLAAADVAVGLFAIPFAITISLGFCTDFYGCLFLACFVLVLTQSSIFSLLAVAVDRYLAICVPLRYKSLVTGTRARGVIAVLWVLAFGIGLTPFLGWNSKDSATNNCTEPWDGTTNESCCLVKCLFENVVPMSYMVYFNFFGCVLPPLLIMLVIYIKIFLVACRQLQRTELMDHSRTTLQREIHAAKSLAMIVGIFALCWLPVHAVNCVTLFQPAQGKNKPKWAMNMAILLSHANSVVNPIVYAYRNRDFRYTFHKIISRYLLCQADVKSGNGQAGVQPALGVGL
Put plainly: Binding affinity to human adenosine A2B receptor.

Series [15] in a line: Plasma protein binding in human. The series is classed as ADME, cell-free. The settings on record: read-out: PPB (converted).
Series [16] is described as follows: Drug uptake in brain of haloperidol-induced Sprague-Dawley rat cataleptic model after 1 hr. The settings on record: read-out: Drug uptake. The series is classed as ADME, tissue-based.
Series [17] can be described thus: Permeability of the compound. The series is classed as ADME. The settings on record: not told; read-out: permeability.

T1 sequence (P08684 whole entry): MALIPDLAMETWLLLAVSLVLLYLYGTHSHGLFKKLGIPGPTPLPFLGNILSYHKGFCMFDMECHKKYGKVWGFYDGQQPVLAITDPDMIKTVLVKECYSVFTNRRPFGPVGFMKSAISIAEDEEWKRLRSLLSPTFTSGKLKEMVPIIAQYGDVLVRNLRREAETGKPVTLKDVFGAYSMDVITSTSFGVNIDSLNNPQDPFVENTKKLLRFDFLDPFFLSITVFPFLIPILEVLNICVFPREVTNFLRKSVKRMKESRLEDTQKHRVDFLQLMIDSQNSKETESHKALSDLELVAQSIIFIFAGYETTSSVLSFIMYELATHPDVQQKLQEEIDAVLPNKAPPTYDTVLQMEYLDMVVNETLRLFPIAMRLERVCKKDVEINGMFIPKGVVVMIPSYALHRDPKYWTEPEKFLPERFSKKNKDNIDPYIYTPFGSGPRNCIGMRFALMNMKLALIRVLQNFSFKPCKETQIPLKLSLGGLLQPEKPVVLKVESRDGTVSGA

Usually inhibition in vivo stands for the relative decrease from the control value, in per cent. For orientation: Ki means a measure of affinity in units of concentration, obtained from inhibition or displacement. Broadly, the AUC is concentration integrated over time. A low value points to low exposure. Take `Nc1nc(C(=O)NCc2cccc3cccnc23)c2cccc(F)c2n1`: the inhibition in vivo at 10 mg/kg in the series with Rattus norvegicus [1] is 74%. Besides, the values for the Ki on Adenosine receptor A2a [2], at Adenosine receptor A1 and at Adenosine receptor A2a [6] were 1.3 nM, 12 nM and 0.5 nM, respectively. Besides, in series [3], the AUC at 1 h came to 2.4 µM·h. Further, the TDI result at Cytochrome P450 3A4 [4] was “Not Active”. Besides, in the series with Rattus norvegicus [5], the inhibition in vivo at 1 mg/kg was determined as 30%.
For orientation: solubility means the dissolved amount per volume that the medium holds. Higher therefore signals a readily soluble substance. As usually defined, the half-life is how long it takes for the measured level to halve. Read a low half-life as rapid decline. Turning to `Nc1nc(C(=O)NCc2cccc3cccnc23)c2ccccc2n1`, the “fold change (FC)” value on Cytochrome P450 3A4 [7] was found to be 3. In the series on Rattus norvegicus [1], the inhibition in vivo at 10 mg/kg was 35%. Also, the Ki on Adenosine receptor A2a [2] is 11 nM; on Adenosine receptor A3, 985 nM; at Adenosine receptor A1, 90 nM; at Adenosine receptor A2b, 1470 nM; on Adenosine receptor A2a [6] it was 1.1 nM. Also, the results for the hepatocyte CLint in series [8] and in series [12] were 12.8 µL/min/1e6 cells and 34.8 µL/min/1e6 cells, respectively. For the same compound, in series [9], the concentration in solution (solubility) was 124 µM (≈ 40.8 µg/mL). In [3], this compound gave an AUC at 1 h of 1.6 µM·h. Besides, the half-life in [10] was 30 min. Moreover, the figures for the concentration at 1 h in [11] and in series [16] were 4.2 µM and 3.1 µM, respectively. Moreover, the fraction unbound in series [13] is 0.045; in [15] it was 0.036. Further, the inhibition in vivo at 30 mg/kg in the series on Rattus norvegicus [14] is 61%. The Papp in series [17] worked out at 40 ×10⁻⁶ cm/s.
